This note sets out measurements from patent US20090030086A1, “ANTIMICROBIAL AGENTS” (priority 2005, published 2009).

Converted amounts (≈) assume the structure as drawn.

For experiment [1], the system named is H. influenzae ATCC 49247. In words: MBC assay. It is filed as cell-based, Haemophilus influenzae. As to the method:
(§1) The H. influenzae strain was cultured and maintained on Haemophilus Test Medium (HTM) agar/broth (the composition of which is as described in NCCLS M7-A6 Vol. 23 No. 2); cultures were incubated in a CO2 atmosphere at 37° C. for 24 hours.
This assay, normally carried out after an MIC assay, determines the minimum concentration of a compound that is lethal to the micro-organism being tested.
These samples were then individually sub-cultured on non-selective agar medium, under the incubation conditions described above. Following incubation they were examined visually for bacterial growth.
The activity of TBHQ against three other bacterial strains was investigated using MIC, MBC and DDA assays as described above. For the DDA assays, 200 μg of TBHQ was loaded onto each disc, using ethanol as the solvent.

Experiment [2] deals with H. influenzae ATCC 49247. In words: Disc diffusion assay (DDA). The experiment is classed as cell-based, Haemophilus influenzae. Particulars: 200 μg per disc. As to the method:
as §1
A sterile paper disc was impregnated with a sample of the test compound and a minimum of 30 minutes allowed for the solvents to evaporate as far as possible. The disc was then placed on an agar plate onto which the test micro-organism had been inoculated. The plate was then incubated under the conditions described above, following which it was examined visually for signs of bacterial growth. If the test compound had antimicrobial activity, a circular zone of no growth would be obtained around the disc. The diameter of this zone of “inhibition” was measured using a ProtoCOL™ automated zone sizer (Synbiosis, Cambridge, UK). In general, a greater diameter and/or area of the zone of inhibition indicates a greater antimicrobial activity in the relevant test compound, although other factors such as test compound mobility through the agar gel may also influence the result.
The area of the zone of inhibition was calculated from the measured zone diameter (D) using the formula π(D/2)^2.
The activity of TBHQ against three other bacterial strains was investigated using MIC, MBC and DDA assays as described above. […]
For orientation: Agar diffusion results depend on both activity and mobility in agar.

Regarding `CC(C)(C)c1cc(O)ccc1O` [TBHQ, 2-t-butyl hydroquinone], the MIC/MBC ratio in the experiment with H. influenzae ATCC 49247 [1] is 1. In the experiment on H. influenzae ATCC 49247 [1] (Haemophilus influenzae, ATCC49247), this molecule displayed an MBC of 15.6 µg/mL (≈ 93.9 µM). The molecule further came in with a DDA in the experiment with H. influenzae ATCC 49247 [2] of 36.33 mm.
